Assay [1] deals with T1, Alpha-2A adrenergic receptor (Homo sapiens, UniProt P08913).
T1 sequence (P08913 whole entry): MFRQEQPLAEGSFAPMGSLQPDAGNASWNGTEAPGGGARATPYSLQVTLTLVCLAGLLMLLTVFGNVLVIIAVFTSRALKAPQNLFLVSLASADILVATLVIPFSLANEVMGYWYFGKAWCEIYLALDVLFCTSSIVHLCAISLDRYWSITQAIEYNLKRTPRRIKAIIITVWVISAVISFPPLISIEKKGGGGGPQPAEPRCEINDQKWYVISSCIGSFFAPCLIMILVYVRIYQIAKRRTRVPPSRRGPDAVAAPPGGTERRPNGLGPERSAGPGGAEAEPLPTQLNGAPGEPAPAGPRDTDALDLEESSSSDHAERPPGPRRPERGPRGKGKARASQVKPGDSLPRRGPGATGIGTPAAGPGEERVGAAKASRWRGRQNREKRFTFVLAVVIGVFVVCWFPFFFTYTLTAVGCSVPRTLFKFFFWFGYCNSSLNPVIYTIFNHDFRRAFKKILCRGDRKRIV
The format is functional, cell-based.

The target in assay [2] is T2, Cholecystokinin receptor type A (Homo sapiens, UniProt P32238).
T2 sequence (P32238 whole entry): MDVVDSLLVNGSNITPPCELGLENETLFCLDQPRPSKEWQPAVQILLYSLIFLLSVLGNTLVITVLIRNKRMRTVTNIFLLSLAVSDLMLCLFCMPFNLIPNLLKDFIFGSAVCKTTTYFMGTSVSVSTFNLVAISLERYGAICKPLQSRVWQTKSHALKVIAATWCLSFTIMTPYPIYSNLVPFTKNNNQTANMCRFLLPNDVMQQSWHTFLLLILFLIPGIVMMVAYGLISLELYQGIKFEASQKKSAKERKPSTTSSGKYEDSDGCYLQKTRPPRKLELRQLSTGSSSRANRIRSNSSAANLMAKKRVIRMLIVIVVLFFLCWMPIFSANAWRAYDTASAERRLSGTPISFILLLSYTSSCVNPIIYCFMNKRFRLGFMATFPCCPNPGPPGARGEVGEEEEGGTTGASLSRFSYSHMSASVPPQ

Assay [3] deals with Muscarinic acetylcholine receptor M3 (Homo sapiens, UniProt P20309).
Muscarinic acetylcholine receptor M3, sequence (P20309 whole entry): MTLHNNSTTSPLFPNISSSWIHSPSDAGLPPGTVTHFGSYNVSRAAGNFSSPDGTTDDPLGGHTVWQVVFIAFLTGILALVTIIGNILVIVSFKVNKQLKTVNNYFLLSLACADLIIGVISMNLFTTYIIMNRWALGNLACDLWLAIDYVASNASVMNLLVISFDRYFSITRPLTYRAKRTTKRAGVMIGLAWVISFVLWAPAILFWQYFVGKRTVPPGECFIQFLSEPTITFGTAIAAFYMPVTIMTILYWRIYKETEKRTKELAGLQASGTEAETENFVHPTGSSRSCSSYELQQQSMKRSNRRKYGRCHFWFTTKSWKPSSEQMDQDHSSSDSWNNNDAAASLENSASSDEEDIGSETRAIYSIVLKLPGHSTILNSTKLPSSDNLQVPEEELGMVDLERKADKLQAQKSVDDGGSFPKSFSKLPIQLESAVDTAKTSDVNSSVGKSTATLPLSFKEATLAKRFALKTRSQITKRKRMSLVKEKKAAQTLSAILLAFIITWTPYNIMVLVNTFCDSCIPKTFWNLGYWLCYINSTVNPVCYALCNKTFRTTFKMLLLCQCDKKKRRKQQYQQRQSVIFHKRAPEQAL
The target of assay [4] is Neuronal acetylcholine receptor subunit alpha-4 (Homo sapiens, UniProt P43681).
Neuronal acetylcholine receptor subunit alpha-4, sequence (P43681 whole entry): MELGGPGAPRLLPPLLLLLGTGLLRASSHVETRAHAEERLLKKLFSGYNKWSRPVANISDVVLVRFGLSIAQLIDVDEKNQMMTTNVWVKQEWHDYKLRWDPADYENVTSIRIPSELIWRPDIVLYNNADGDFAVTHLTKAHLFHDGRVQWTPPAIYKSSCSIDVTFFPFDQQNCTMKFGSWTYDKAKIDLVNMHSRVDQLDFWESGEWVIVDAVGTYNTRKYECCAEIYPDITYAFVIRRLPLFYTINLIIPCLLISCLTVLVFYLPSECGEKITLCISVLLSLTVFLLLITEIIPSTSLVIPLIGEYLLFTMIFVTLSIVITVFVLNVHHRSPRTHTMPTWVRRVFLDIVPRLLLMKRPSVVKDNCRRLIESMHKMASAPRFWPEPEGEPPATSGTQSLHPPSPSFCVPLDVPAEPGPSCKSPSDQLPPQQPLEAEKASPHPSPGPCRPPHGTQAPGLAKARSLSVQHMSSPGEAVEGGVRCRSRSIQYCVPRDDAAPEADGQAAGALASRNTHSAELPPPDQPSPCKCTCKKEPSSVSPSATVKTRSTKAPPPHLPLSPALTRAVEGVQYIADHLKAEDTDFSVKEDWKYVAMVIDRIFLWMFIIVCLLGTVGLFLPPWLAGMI
The next assay concerns the target D(1A) dopamine receptor (Homo sapiens, UniProt P21728). The format is functional, cell-based.
The target in assay [5] is Gamma-aminobutyric acid receptor subunit alpha-1 (Rattus norvegicus, UniProt P62813). The format is functional.
Gamma-aminobutyric acid receptor subunit alpha-1, sequence (P62813 whole entry): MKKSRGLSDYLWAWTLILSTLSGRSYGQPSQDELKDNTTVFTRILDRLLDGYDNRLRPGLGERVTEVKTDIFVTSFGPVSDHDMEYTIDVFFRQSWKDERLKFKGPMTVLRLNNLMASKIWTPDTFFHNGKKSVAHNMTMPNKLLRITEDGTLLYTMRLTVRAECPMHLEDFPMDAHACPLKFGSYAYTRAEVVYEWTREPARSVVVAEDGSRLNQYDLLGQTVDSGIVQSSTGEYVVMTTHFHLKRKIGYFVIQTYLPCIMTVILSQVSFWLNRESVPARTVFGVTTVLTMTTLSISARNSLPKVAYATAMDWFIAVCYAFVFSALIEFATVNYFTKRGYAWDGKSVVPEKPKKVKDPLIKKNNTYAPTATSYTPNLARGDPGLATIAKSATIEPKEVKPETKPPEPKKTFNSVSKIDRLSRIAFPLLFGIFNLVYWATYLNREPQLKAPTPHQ
A further assay concerns the target Histamine H2 receptor (Homo sapiens, UniProt P25021). The format is functional, cell-based.
A further assay has as its target T3, Progesterone receptor (Homo sapiens, UniProt P06401).
T3 sequence (P06401 whole entry): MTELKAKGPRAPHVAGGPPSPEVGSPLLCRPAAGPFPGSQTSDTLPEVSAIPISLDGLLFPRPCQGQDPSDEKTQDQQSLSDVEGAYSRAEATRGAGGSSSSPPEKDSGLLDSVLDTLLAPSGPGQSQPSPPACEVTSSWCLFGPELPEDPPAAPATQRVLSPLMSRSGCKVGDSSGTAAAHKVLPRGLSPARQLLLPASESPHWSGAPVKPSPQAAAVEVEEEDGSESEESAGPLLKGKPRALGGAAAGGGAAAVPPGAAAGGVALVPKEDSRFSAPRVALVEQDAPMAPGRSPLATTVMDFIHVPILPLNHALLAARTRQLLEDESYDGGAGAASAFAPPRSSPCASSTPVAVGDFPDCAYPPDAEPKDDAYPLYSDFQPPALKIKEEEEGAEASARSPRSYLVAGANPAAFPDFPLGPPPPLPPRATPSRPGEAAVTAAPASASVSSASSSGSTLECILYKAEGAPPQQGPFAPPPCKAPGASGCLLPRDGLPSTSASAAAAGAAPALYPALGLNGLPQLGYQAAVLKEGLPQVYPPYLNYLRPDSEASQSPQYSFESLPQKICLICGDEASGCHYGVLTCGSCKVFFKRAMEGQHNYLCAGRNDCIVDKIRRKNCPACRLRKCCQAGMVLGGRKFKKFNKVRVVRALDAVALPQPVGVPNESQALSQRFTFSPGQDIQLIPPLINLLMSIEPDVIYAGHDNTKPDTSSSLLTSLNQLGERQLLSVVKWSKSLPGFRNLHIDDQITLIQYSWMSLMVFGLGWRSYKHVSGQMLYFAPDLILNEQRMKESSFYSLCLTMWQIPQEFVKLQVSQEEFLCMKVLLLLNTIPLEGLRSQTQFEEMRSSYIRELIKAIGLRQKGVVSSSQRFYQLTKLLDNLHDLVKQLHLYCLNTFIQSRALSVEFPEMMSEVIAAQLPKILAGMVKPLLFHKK
The format is functional.

In assay [6] the target is T4, Amine oxidase [flavin-containing] A (Homo sapiens, UniProt P21397).
T4 sequence (P21397 whole entry): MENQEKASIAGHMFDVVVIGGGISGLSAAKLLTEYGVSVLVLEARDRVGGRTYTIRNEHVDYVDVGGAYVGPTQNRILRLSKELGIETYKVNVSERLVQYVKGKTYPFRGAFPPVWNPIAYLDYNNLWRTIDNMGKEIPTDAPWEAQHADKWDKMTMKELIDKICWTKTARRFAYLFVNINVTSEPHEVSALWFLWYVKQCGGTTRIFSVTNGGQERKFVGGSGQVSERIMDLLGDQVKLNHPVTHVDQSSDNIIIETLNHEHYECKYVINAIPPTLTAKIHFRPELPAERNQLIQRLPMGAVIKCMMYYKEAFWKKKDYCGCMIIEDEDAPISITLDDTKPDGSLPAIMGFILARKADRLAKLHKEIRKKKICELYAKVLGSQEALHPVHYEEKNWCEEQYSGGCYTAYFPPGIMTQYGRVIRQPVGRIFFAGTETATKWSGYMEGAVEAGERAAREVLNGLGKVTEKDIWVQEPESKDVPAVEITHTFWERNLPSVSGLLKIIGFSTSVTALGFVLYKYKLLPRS
The format is functional.
Also: assay procedure not described here.

D(1A) dopamine receptor, sequence (P21728 whole entry): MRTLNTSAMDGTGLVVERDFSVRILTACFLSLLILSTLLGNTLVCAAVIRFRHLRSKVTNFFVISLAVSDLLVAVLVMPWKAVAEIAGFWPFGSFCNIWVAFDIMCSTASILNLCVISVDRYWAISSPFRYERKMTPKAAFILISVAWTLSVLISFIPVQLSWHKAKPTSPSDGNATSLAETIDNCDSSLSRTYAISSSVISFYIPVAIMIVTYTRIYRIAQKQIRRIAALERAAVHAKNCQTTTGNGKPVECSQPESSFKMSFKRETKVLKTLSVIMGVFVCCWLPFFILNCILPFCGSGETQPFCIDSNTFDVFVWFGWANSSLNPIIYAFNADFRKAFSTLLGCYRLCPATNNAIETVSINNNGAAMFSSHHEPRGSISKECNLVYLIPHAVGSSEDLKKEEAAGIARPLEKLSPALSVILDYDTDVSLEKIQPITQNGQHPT
Histamine H2 receptor, sequence (P25021 whole entry): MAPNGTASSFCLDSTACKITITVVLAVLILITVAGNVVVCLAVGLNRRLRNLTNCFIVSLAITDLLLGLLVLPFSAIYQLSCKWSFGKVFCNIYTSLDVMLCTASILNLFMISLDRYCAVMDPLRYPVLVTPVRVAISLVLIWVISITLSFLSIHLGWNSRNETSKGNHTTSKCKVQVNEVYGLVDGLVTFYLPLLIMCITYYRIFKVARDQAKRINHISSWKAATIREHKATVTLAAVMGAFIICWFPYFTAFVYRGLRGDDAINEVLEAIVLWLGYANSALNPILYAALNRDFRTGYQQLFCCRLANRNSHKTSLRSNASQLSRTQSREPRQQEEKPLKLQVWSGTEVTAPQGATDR

The AC50 is the midpoint of the concentration-response curve, whichever way the signal moves. A high value points to activity only at high concentration. With `CCCCC1(CC)C(=O)NC(=O)NC1=O` [BUTETHAL], the AC50 (in assay [1]; in [2]; in [3]; in [4]; at D(1A) dopamine receptor; in assay [5]) was above 30 µM throughout. Further, the AC50 (at Histamine H2 receptor; on Progesterone receptor; in [6]) was above 30 µM throughout.

`CO[C@@]1(NC(=O)Cc2cccs2)C(=O)N2C(C(=O)O)=C(COC(N)=O)CS[C@@H]21` [CEFOXITIN]: the concentration at half-maximal activity (AC50) (in assay [1]; in assay [2]; in [3]; in assay [4]; at D(1A) dopamine receptor; in assay [5]) was above 30 µM throughout. Moreover, the AC50 (on Histamine H2 receptor; on Progesterone receptor; in assay [6]) was above 30 µM each time.

Consider `CCN(CC)CCOC(=O)c1ccc(N)cc1Cl` [CHLOROPROCAINE], for which the AC50 in assay [1] was above 30 µM; in assay [2] it was above 30 µM; in assay [3] it was 18 µM; in assay [4] it was 25 µM; at D(1A) dopamine receptor, above 30 µM; in assay [5] it was above 30 µM. In addition, the values for the AC50 (on Histamine H2 receptor; at Progesterone receptor; in assay [6]) were above 30 µM, above 30 µM and 7.9 µM, respectively.

Turning to `COCCOC(=O)C1=C(C)NC(C)=C(C(=O)OC/C=C/c2ccccc2)C1c1cccc([N+](=O)[O-])c1` (stereo not drawn) [CILNIDIPINE], the AC50 (in [2]; in assay [3]; in assay [4]; at D(1A) dopamine receptor; in [5]; on Histamine H2 receptor) was above 30 µM in each case. Also, the AC50 (on Progesterone receptor; in [6]) was above 30 µM throughout.

For `O=C(O)c1ccccc1OP(=O)(O)O` [FOSFOSAL], the AC50 (in assay [1]; in assay [2]; in assay [3]; in assay [4]; on D(1A) dopamine receptor; in assay [5]) was above 30 µM throughout. Further, the AC50 (on Histamine H2 receptor; at Progesterone receptor; in [6]) was above 30 µM in each case.

In the case of `CC1(C)C(/C=C/C=C/C=C/C=C2\N(CCCCS(=O)(=O)O)c3ccc4ccccc4c3C2(C)C)=[N+](CCCCS(=O)(=O)[O-])c2ccc3ccccc3c21` [INDOCYANINE GREEN ACID FORM], the AC50 in assay [1] is above 30 µM; in assay [2] it was 19 µM; in [3], 13 µM; in assay [4], above 30 µM; in assay [5], 18 µM; on Histamine H2 receptor, 24 µM. Moreover, the AC50 (at Progesterone receptor; in assay [6]) was above 30 µM each time.

For the compound `CCCC[C@H](C)C[C@H](O)/C=C/[C@H]1[C@H](O)CC(=O)[C@@H]1CCCC/C=C/C(=O)O` [LIMAPROST], the half-maximal activity concentration (AC50) (in assay [1]; in assay [2]; in assay [3]; in assay [4]; at D(1A) dopamine receptor; at Histamine H2 receptor) was above 30 µM each time. For the same compound, the half-maximal activity concentration (AC50) (at Progesterone receptor; in assay [6]) was above 30 µM in each case.

`Cc1ccc(NC(=O)C2(c3ccc4c(c3)OC(F)(F)O4)CC2)nc1-c1cccc(C(=O)O)c1` [LUMACAFTOR]: the AC50 (in assay [1]; in [2]; in assay [3]; in [4]; on D(1A) dopamine receptor; in assay [5]) was above 30 µM in each case. The AC50 (at Histamine H2 receptor; at Progesterone receptor; in assay [6]) was above 30 µM throughout.

As for `CCOC(=O)Nc1ccc2c(c1)N(C(=O)CCN1CCOCC1)c1ccccc1S2` [MORICIZINE], the AC50 (in assay [1]; in assay [2]; in [3]; in assay [4]; at D(1A) dopamine receptor; in [5]) was above 30 µM in each case. Further, the AC50 (on Histamine H2 receptor; at Progesterone receptor; in assay [6]) was above 30 µM in each case.

On to `Cc1ccc(=O)n(-c2ccccc2)c1` [PIRFENIDONE], for which the AC50 (in [1]; in assay [2]; in assay [3]; in assay [4]; on D(1A) dopamine receptor; in assay [5]) was above 30 µM each time. The AC50 (at Histamine H2 receptor; on Progesterone receptor; in assay [6]) was above 30 µM each time.

Regarding `Cc1ccc2c(-c3ccccc3)nc(=O)n(C(C)C)c2c1` [PROQUAZONE], the AC50 in assay [1] was 28 µM; in assay [2], above 30 µM; in assay [3], above 30 µM; in assay [4], above 30 µM; at D(1A) dopamine receptor, above 30 µM; in assay [5], above 30 µM. Besides, the AC50 (on Histamine H2 receptor; at Progesterone receptor; in assay [6]) was above 30 µM throughout.

Turning to `CN1CCN(c2c(F)cc3c(=O)c(C(=O)O)cn4c3c2SCC4)CC1` [RUFLOXACIN], the AC50 (in [1]; in [2]; in assay [3]; in assay [4]; on D(1A) dopamine receptor; in assay [5]) was above 30 µM each time. Also, the AC50 (at Histamine H2 receptor; at Progesterone receptor; in assay [6]) was above 30 µM in each case.

On to `CN1c2ccccc2C(NCCCCCCC(=O)O)c2ccc(Cl)cc2S1(=O)=O` (stereo not drawn) [TIANEPTINE], for which the AC50 (in assay [1]; in [2]; in assay [3]; in assay [4]; at D(1A) dopamine receptor; in [5]) was above 30 µM in each case. Also, the AC50 (at Histamine H2 receptor; on Progesterone receptor; in assay [6]) was above 30 µM throughout.

On to `COc1cc2c(Nc3ccc(Br)cc3F)ncnc2cc1OCC1CCN(C)CC1` [VANDETANIB], for which the AC50 is 2.1 µM in assay [1]; above 10 µM in assay [2]; 24 µM in assay [3]; 9.6 µM in assay [4]; above 30 µM on D(1A) dopamine receptor; above 30 µM in assay [5]. The half-maximal activity concentration (AC50) (on Histamine H2 receptor; at Progesterone receptor; in assay [6]) was above 30 µM in each case.
